Source: patent US20130023045A1, “INDUCED HEPATIC STEM CELL AND PROCESS FOR PRODUCTION THEREOF, AND APPLICATIONS OF THE CELL” (NATIONAL CANCER CENTER, priority 2010, published 2013)

Tested on: induced human hepatic stem cells (AFB1-1, NGC1-2)
Experiment: Long-term passage culture of induced human hepatic stem cells
Format: cell-based
Settings: addition of 0.05-0.5 μM to the medium, passage culture for six months or longer
Description: Induced human hepatic stem cells (AFB1-1, NGC1-2) were subjected to passage culture for six months or longer. The exemplary medium used includes mTeSR1 (STEMCELL Technologies/VERITAS), a bFGF-supplemented medium for primate ES/iPS cells (ReproCELL), or bFGF-supplemented ReproStem (ReproCELL). In the case of using MEFs, a collagen- or gelatin-coated culture dish was used, and in the case of not using MEFs, a matrigel-coated culture dish was used.

Structure (SMILES): Cc1cccc(-c2nn(C(=S)Nc3ccccc3)cc2-c2ccnc3ccccc23)n1 [A-83-01]
- proliferation rate and morphology: highly satisfactory proliferation rate and morphology
- self-replication of induced human hepatic stem cells: useful for self-replication of induced human hepatic stem cells
